Data on five compounds can be found in ChEMBL document CHEMBL1148858, “Discovery of novel benzimidazolones as potent non-nucleoside reverse transcriptase inhibitors active against wild-type and mutant HIV-1 strains” (Bioorg Med Chem Lett, 2007).

pEC50, pIC50: −log10 of the molar value.

Series [1] concerns the target Human immunodeficiency virus type 1 reverse transcriptase (Human immunodeficiency virus 1, UniProt Q72547). Description: Inhibition of RNA dependent DNA polymerase activity of HIV1 recombinant reverse transcriptase.
Series [2] is described as follows: Cytotoxicity against MT4 cells assessed as reduction of cell viability. It is filed as cell-based. The following applies: human.
Series [3] concerns Human immunodeficiency virus 1. Description: Antiviral activity against HIV1 with reverse transcriptase L100I mutation in CEM cells assessed as inhibition of virus-induced giant cell formation. It is filed as functional, organism-based. The following applies: Human immunodeficiency virus 1, CCRF-CEM.
The subject of series [4] is Human immunodeficiency virus 1. Description: Antiviral activity against HIV1 assessed as reduction of virus-induced cytopathic effect in MT4 cells. The following applies: Human immunodeficiency virus 1, MT4. It is filed as functional, organism-based.
For series [5], the system named is Human immunodeficiency virus 1. Description: Antiviral activity against HIV1 3B in CEM cells assessed as inhibition of virus-induced giant cell formation. It is filed as functional, organism-based. The following applies: Human immunodeficiency virus 1, 3B, CCRF-CEM.
Series [6] relates to Human immunodeficiency virus 1. Description: Antiviral activity against HIV1 with reverse transcriptase Y181C mutation in CEM cells assessed as inhibition of virus-induced giant cell formation. Format: functional, organism-based. The following applies: Human immunodeficiency virus 1, CCRF-CEM.
Series [7] relates to Human immunodeficiency virus 1. Description: Antiviral activity against HIV1 with reverse transcriptase E138K mutation in CEM cells assessed as inhibition of virus-induced giant cell formation. It is filed as functional, organism-based. The following applies: Human immunodeficiency virus 1, CCRF-CEM.
The nature of series [8]: Selectivity index, ratio of CC50 for human MT4 cells to EC50 for HIV1. It is filed as functional.
Series [9] relates to Human immunodeficiency virus 1. Description: Antiviral activity against HIV1 with reverse transcriptase K103N mutation in CEM cells assessed as inhibition of virus-induced giant cell formation. Format: functional, organism-based. The following applies: Human immunodeficiency virus 1, CCRF-CEM.
For series [10], the system named is Human immunodeficiency virus 1. Description: Antiviral activity against HIV1 with reverse transcriptase Y188H mutation in CEM cells assessed as inhibition of virus-induced giant cell formation. It is filed as functional, organism-based. The following applies: Human immunodeficiency virus 1, CCRF-CEM.

What is called pIC50 is the IC50 on a negative log10 scale, so that one unit is a factor of ten. One may read the CC50 as the concentration that lowers cell viability or growth by half. One may read the pEC50 as the EC50 on a negative log10 scale, so that one unit is a factor of ten. With `Cc1cc(C)cc(Cn2c(=O)[nH]c3ccc(Cl)cc32)c1`, the pIC50 in [1] was 6.82. In [2], the cytotoxic concentration (CC50) turned out to be 8900 nM. Besides, the negative logarithm of the EC50 (pEC50) in series [3] was 7.31; in [4] it was 7.49; in series [5], 7.09; in series [6], less than 5.52; in series [7], 6.18; in [9], not above 5.52. For the same compound, the pEC50 in [10] was less than 5.52. For the same compound, the “Ratio CC50/EC50” value in series [8] came out at 281.
In the case of `Cc1cc(C)cc(S(=O)(=O)n2c(=O)[nH]c3ccc(Cl)cc32)c1`, the negative-log IC50 (pIC50) in series [1] was 8.30. Also, the CC50 in [2] is 39000 nM. Further, the pEC50 in series [3] is 8.22; in series [4], 8.70; in [5], 8.52; in [6], 6.80; in series [7], 7.82; in series [9] it was 7.54. Also, the negative-log EC50 (pEC50) in series [10] is 5.82. For the same compound, the “Ratio CC50/EC50” value in series [8] is 17846.
Consider `O=c1[nH]c2ccc(Cl)cc2n1Cc1c(F)cccc1F`, for which, in series [1], the pIC50 was 6.15. Moreover, in series [2], the cytotoxic concentration (CC50) was more than 424000 nM. Moreover, the negative logarithm of the EC50 (pEC50) in [3] is 5.51; in series [4] it was 6.62; in series [5], 6.43; in [6], less than 4.30; in [7] it was 5.60; in [9], less than 4.30. Further, the pEC50 in series [10] was less than 4.30. The “Ratio CC50/EC50” value in series [8] was more than 1766.
In the case of `O=C1Nc2ccc(Cl)cc2[C@@](C#CC2CC2)(C(F)(F)F)O1` [EFAVIRENZ], the cytotoxic concentration (CC50) in series [2] is more than 6000 nM. Moreover, the pEC50 in [6] was 8.21; in [7], 8.02; in series [9], 6.66; in series [10] it was 7.31.
In the case of `Cc1ccnc2c1NC(=O)c1cccnc1N2C1CC1` [NEVIRAPINE], the CC50 in [2] was more than 15000 nM. Moreover, the pEC50 is 6.70 in series [3]; 7.14 in [4]; 7.52 in series [5]; 5.60 in series [6]; 6.68 in series [7]; 5.89 in series [9]. In series [10], the pEC50 is less than 4.12.
